Measurements: PubChem BioAssay (NCI)
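Briefly, cells in 96-well plates were exposed to five compound concentrations for 48 h, and endpoints were estimated by linear interpolation. GI50 = concentration required for 50% inhibition of growth. TGI marks complete inhibition of growth.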

What was measured:
Test in all cases: NCI-60 cell line screen, 48 h
786-0 renal = test system: 786-0 renal
A498 renal = test system: A498 renal
A549 NSCLC = test system: A549 NSCLC
ACHN renal = test system: ACHN renal
CAKI-1 renal = test system: CAKI-1 renal
CCRF-CEM leukemia = test system: CCRF-CEM leukemia
COLO 205 colon = test system: COLO 205 colon
DU-145 prostate = test system: DU-145 prostate
EKVX NSCLC = test system: EKVX NSCLC
HCC-2998 colon = test system: HCC-2998 colon
HCT-116 colon = test system: HCT-116 colon
HCT-15 colon = test system: HCT-15 colon
HL-60(TB) leukemia = test system: HL-60(TB) leukemia
HOP-62 NSCLC = test system: HOP-62 NSCLC
HOP-92 NSCLC = test system: HOP-92 NSCLC
HS 578T breast = test system: HS 578T breast
HT29 colon = test system: HT29 colon
IGROV1 ovarian = test system: IGROV1 ovarian
K-562 leukemia = test system: K-562 leukemia
KM12 colon = test system: KM12 colon
LOX IMVI melanoma = test system: LOX IMVI melanoma
M14 melanoma = test system: M14 melanoma
MALME-3M melanoma = test system: MALME-3M melanoma
MCF7 breast = test system: MCF7 breast
MDA-MB-231 breast = test system: MDA-MB-231 breast
MDA-MB-435 = test system: MDA-MB-435
MOLT-4 leukemia = test system: MOLT-4 leukemia
NCI-H226 lung = test system: NCI-H226 lung
NCI-H23 lung = test system: NCI-H23 lung
NCI-H460 lung = test system: NCI-H460 lung
NCI-H522 lung = test system: NCI-H522 lung
NCI/ADR-RES ovarian = test system: NCI/ADR-RES ovarian
OVCAR-3 ovarian = test system: OVCAR-3 ovarian
OVCAR-4 ovarian = test system: OVCAR-4 ovarian
OVCAR-5 ovarian = test system: OVCAR-5 ovarian
OVCAR-8 ovarian = test system: OVCAR-8 ovarian
PC-3 prostate = test system: PC-3 prostate
RPMI-8226 leukemia = test system: RPMI-8226 leukemia
RXF 393 renal = test system: RXF 393 renal
SF-268 CNS = test system: SF-268 CNS
SF-295 CNS = test system: SF-295 CNS
SF-539 CNS = test system: SF-539 CNS
SK-MEL-2 melanoma = test system: SK-MEL-2 melanoma
SK-MEL-28 melanoma = test system: SK-MEL-28 melanoma
SK-MEL-5 melanoma = test system: SK-MEL-5 melanoma
SN12C renal = test system: SN12C renal
SNB-19 CNS = test system: SNB-19 CNS
SNB-75 CNS = test system: SNB-75 CNS
SR leukemia = test system: SR leukemia
SW-620 colon = test system: SW-620 colon
T-47D breast = test system: T-47D breast
TK-10 renal = test system: TK-10 renal
U251 CNS = test system: U251 CNS
UACC-257 melanoma = test system: UACC-257 melanoma
UACC-62 melanoma = test system: UACC-62 melanoma
UO-31 renal = test system: UO-31 renal
SK-OV-3 ovarian = test system: SK-OV-3 ovarian

CCCCCN(CCCCC)CC(C)(C)C(O)c1ccc(OC)c2ccccc12 (centres undefined)
TGI (786-0 renal): 35.7 µM | TGI (A498 renal): 28.1 µM | TGI (A549 NSCLC): 21.1 µM | TGI (ACHN renal): 27.2 µM | TGI (CAKI-1 renal): 28 µM | TGI (CCRF-CEM leukemia): > 100 µM | TGI (COLO 205 colon): 40.6 µM | TGI (DU-145 prostate): 28.2 µM | TGI (EKVX NSCLC): 25.9 µM | TGI (HCC-2998 colon): 31.4 µM | TGI (HCT-116 colon): 61.9 µM | TGI (HCT-15 colon): 21 µM | TGI (HL-60(TB) leukemia): 20.7 µM | TGI (HOP-62 NSCLC): > 100 µM | TGI (HOP-92 NSCLC): 12.7 µM | TGI (HS 578T breast): 39.8 µM | TGI (HT29 colon): 16.5 µM | TGI (IGROV1 ovarian): 14.3 µM | TGI (K-562 leukemia): 25 µM | TGI (KM12 colon): 25.4 µM | TGI (LOX IMVI melanoma): 4.99 µM | TGI (M14 melanoma): 21.7 µM | TGI (MALME-3M melanoma): 29.9 µM | TGI (MCF7 breast): 22.5 µM | TGI (MDA-MB-231 breast): 31.2 µM | TGI (MDA-MB-435): 29.8 µM | TGI (MOLT-4 leukemia): 76.9 µM | TGI (NCI-H226 lung): 33.6 µM | TGI (NCI-H23 lung): 32.3 µM | TGI (NCI-H460 lung): 24.9 µM | TGI (NCI-H522 lung): 20.3 µM | TGI (NCI/ADR-RES ovarian): 26.3 µM | TGI (OVCAR-3 ovarian): 26 µM | TGI (OVCAR-4 ovarian): 27.9 µM | TGI (OVCAR-5 ovarian): 31.4 µM | TGI (OVCAR-8 ovarian): 22.9 µM | TGI (PC-3 prostate): 26.4 µM | TGI (RPMI-8226 leukemia): 32.1 µM | TGI (RXF 393 renal): 24.1 µM | TGI (SF-268 CNS): 31.5 µM | TGI (SF-295 CNS): 29.7 µM | TGI (SF-539 CNS): 17.6 µM | TGI (SK-MEL-2 melanoma): 32.7 µM | TGI (SK-MEL-28 melanoma): 24.5 µM | TGI (SK-MEL-5 melanoma): 12.8 µM | TGI (SN12C renal): 25.2 µM | TGI (SNB-19 CNS): 28 µM | TGI (SNB-75 CNS): 51.9 µM | TGI (SR leukemia): 11.3 µM | TGI (SW-620 colon): 27.3 µM | TGI (T-47D breast): 21.1 µM | TGI (TK-10 renal): 25.6 µM | TGI (U251 CNS): 22.7 µM | TGI (UACC-257 melanoma): 26.1 µM | TGI (UACC-62 melanoma): 25.6 µM | TGI (UO-31 renal): 8.93 µM

COc1cc(NC(=O)NCc2ccco2)ccc1-c1ccc(NC(=O)NCc2ccco2)cc1OC
GI50 (786-0 renal): 2.35 µM | TGI (786-0 renal): 11.4 µM | GI50 (A498 renal): 1.72 µM | TGI (A498 renal): 8.25 µM | GI50 (A549 NSCLC): 1.74 µM | TGI (A549 NSCLC): 28.3 µM | GI50 (ACHN renal): 2.84 µM | TGI (ACHN renal): > 100 µM | GI50 (CAKI-1 renal): 10.1 µM | TGI (CAKI-1 renal): > 100 µM | GI50 (CCRF-CEM leukemia): 16.8 µM | TGI (CCRF-CEM leukemia): > 100 µM | GI50 (COLO 205 colon): 3.1 µM | TGI (COLO 205 colon): > 100 µM | GI50 (DU-145 prostate): 3.01 µM | TGI (DU-145 prostate): > 100 µM | GI50 (EKVX NSCLC): 3.26 µM | TGI (EKVX NSCLC): 31 µM | GI50 (HCC-2998 colon): 7.97 µM | TGI (HCC-2998 colon): > 100 µM | GI50 (HCT-116 colon): 0.696 µM | TGI (HCT-116 colon): > 100 µM | GI50 (HCT-15 colon): 0.398 µM | TGI (HCT-15 colon): > 100 µM | GI50 (HL-60(TB) leukemia): > 100 µM | TGI (HL-60(TB) leukemia): > 100 µM | GI50 (HOP-62 NSCLC): 1.94 µM | TGI (HOP-62 NSCLC): 11.3 µM | GI50 (HOP-92 NSCLC): 2.67 µM | TGI (HOP-92 NSCLC): 7.76 µM | GI50 (HS 578T breast): 1.51 µM | TGI (HS 578T breast): 6.86 µM | GI50 (K-562 leukemia): 0.773 µM | TGI (K-562 leukemia): > 100 µM | GI50 (KM12 colon): 1.82 µM | TGI (KM12 colon): > 100 µM | GI50 (LOX IMVI melanoma): 1.28 µM | TGI (LOX IMVI melanoma): > 100 µM | GI50 (M14 melanoma): 3.2 µM | TGI (M14 melanoma): 38.2 µM | GI50 (MALME-3M melanoma): 1.65 µM | TGI (MALME-3M melanoma): 5.56 µM | GI50 (MCF7 breast): 1.49 µM | TGI (MCF7 breast): 4.68 µM | GI50 (MDA-MB-231 breast): 1.41 µM | TGI (MDA-MB-231 breast): 3.98 µM | GI50 (MDA-MB-435): 4.14 µM | TGI (MDA-MB-435): > 100 µM | GI50 (MOLT-4 leukemia): 20.3 µM | TGI (MOLT-4 leukemia): > 100 µM | GI50 (NCI-H226 lung): 1.46 µM | TGI (NCI-H226 lung): 7.92 µM | GI50 (NCI-H23 lung): 2.99 µM | TGI (NCI-H23 lung): 11 µM | GI50 (NCI-H460 lung): 0.526 µM | TGI (NCI-H460 lung): > 100 µM | GI50 (NCI-H522 lung): 2 µM | TGI (NCI-H522 lung): 5.33 µM | GI50 (NCI/ADR-RES ovarian): > 100 µM | TGI (NCI/ADR-RES ovarian): > 100 µM | GI50 (OVCAR-3 ovarian): 2.59 µM | TGI (OVCAR-3 ovarian): 16.2 µM | GI50 (OVCAR-4 ovarian): 1.47 µM | TGI (OVCAR-4 ovarian): 3.71 µM | GI50 (OVCAR-5 ovarian): 19.5 µM | TGI (OVCAR-5 ovarian): > 100 µM | GI50 (OVCAR-8 ovarian): 1.88 µM | TGI (OVCAR-8 ovarian): 11.7 µM | GI50 (PC-3 prostate): 3.34 µM | TGI (PC-3 prostate): 39.9 µM | GI50 (RPMI-8226 leukemia): > 100 µM | TGI (RPMI-8226 leukemia): > 100 µM | GI50 (RXF 393 renal): 1.88 µM | TGI (RXF 393 renal): 6.22 µM | GI50 (SF-268 CNS): 0.98 µM | TGI (SF-268 CNS): 13.6 µM | GI50 (SF-295 CNS): 1.25 µM | TGI (SF-295 CNS): 14.4 µM | GI50 (SF-539 CNS): 0.663 µM | TGI (SF-539 CNS): 2.62 µM | GI50 (SK-MEL-28 melanoma): 1.5 µM | TGI (SK-MEL-28 melanoma): 5.33 µM | GI50 (SK-MEL-5 melanoma): 0.93 µM | TGI (SK-MEL-5 melanoma): 21.4 µM | GI50 (SK-OV-3 ovarian): 2.49 µM | TGI (SK-OV-3 ovarian): 19.7 µM | GI50 (SN12C renal): 3.17 µM | TGI (SN12C renal): 23.3 µM | GI50 (SNB-19 CNS): 3.22 µM | TGI (SNB-19 CNS): 17.2 µM | GI50 (SNB-75 CNS): 1.02 µM | TGI (SNB-75 CNS): 4 µM | GI50 (SR leukemia): 0.458 µM | TGI (SR leukemia): > 100 µM | GI50 (SW-620 colon): 6.15 µM | TGI (SW-620 colon): > 100 µM | GI50 (T-47D breast): 2.38 µM | TGI (T-47D breast): > 100 µM | GI50 (TK-10 renal): 1.01 µM | TGI (TK-10 renal): 9.87 µM | GI50 (U251 CNS): 0.957 µM | TGI (U251 CNS): 4.3 µM | GI50 (UACC-257 melanoma): 2.72 µM | TGI (UACC-257 melanoma): > 100 µM | GI50 (UACC-62 melanoma): 1.25 µM | TGI (UACC-62 melanoma): 5.18 µM | GI50 (UO-31 renal): 4.4 µM | TGI (UO-31 renal): 55.8 µM
